One block for each compound: values may come before it.
What was measured:
Assay type in all cases: binding
[1] = target: T1, F2RL3 (Homo sapiens, UniProt Q96RI0); test: NanoBRET screen HiBiT-F2RL3 in HEK293
T1 construct: purchased Promega (in-house HiBiT-GPCR construct library, NanoBRET)
T1 sequence (Q96RI0 18-385): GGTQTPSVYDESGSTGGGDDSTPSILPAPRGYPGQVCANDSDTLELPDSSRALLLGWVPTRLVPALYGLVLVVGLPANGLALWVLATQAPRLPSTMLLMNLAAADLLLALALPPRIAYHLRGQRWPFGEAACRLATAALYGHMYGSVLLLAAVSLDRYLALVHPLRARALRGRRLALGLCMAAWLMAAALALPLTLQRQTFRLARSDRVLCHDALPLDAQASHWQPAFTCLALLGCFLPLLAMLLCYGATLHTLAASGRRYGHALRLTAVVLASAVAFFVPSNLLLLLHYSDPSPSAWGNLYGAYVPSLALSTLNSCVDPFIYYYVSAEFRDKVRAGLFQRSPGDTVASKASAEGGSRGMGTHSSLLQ
Method: (§1) Each tracer candidate was screened across the entire library of HiBiT-GPCR constructs using NanoBRET as the detection modality. As depicted in Figure 4A, the specificity of interactions was evaluated through decrease in BRET due to competitive displacement of a bound tracer by excess parental compound. Each tracer was analyzed for binding to each HiBiT-GPCR fusion in the absence and in the presence of competing parental compound. Briefly, HEK293 cells were transfected with HiBiT-GPCR constructs diluted into promoterless DNA to reduce expression and maximize translocation to the cell surface. Each tracer candidate was then screened at concentrations of 1 μM and 0.1 μM across cells expressing these fusions. Cells were treated for 1.5 h with tracer either alone or in the presence of 20 μM competing parental compound (i.e., control). BRET was measured upon addition of purified LgBiT and subsequent complementation with HiBiT genetically fused to a GPCR. The specificity of interactions was assessed through a decrease in BRET signal due to competitive displacement of the bound tracer. To further gauge the robustness of these interactions, the fold response over the control (i.e., BRETtracer/BRETcontrol) was calculated. We chose a 1.5-fold response, which translates to ≥7-fold signal over noise as the minimal threshold required to score an interaction as positive. […]. Below we highlight the screening results obtained for our exemplary fluorescent tracers based on Clozapine, Amitriptyline and AZD1283.
(§2) HiBiT-GPCR DNA constructs were diluted in 10 mM Tris pH 8 to a final concentration of 0.01 μg/μL, arrayed in 96-well plates and stored at −20 °C. For transfection, HEK293 cells were suspended in Opti-MEM (without phenol red) supplemented with 2% fetal bovine serum (Seradigm) and 100 units/mL penicillin–streptomycin (Gibco) at a final concentration of 220,000 cells/mL and dispensed into white 96-well plates at 90 μL/well. Subsequent transfections and screens were carried using an Agilent Bravo Automated Liquid Handling Platform. First, the 96-well HiBiT DNA arrays were diluted 25-fold in Opti-MEM (without serum or phenol red) to a final concentration of 0.0004 μg/μL and 20 μL of the diluted DNAs were transferred into new 96-well plates. Next, promoterless carrier DNA (1 μg/μL) was diluted 25-fold (0.04 μg/μL) and then dispensed into the diluted arrays at 20 μL/well. Following brief mixing, Viafect transfection reagent (Promega) diluted 16-fold into Opti-MEM was dispensed into the plates at 40 μL/well. After mixing by pipetting, plates were incubated for 10 min on the pipetting station deck. The DNA-transfection reagent complexes were then added to plates containing cells. To facilitate the screen, 10 μL of DNA-transfection reagent complexes were added in duplicates to the top 4 and bottom 4 rows, resulting in two identical 48-well arrays per plate. Plates with transfected cells were incubated for 18–20 h at 37 °C/5% CO2. A screen of each tracer across the entire library using two different concentrations requires duplicate plates of transfected cells. Depending on the number of tracers being screened, transfections can be scaled up using the same ratios. The next day, for each tracer, four 20× screening solutions in tracer dilution buffer (Promega) were prepared: two duplicates at final concentration of 20 μM and two duplicates at a final concentration of 2 μM. A competing unmodified compound was added to one of each duplicate at a final concentration of 400 μM. The four resulting solutions were diluted 4-fold in Opti-MEM without serum or phenol red to generate 5× solutions (5 µM and 0.5 µM tracer +/− 100 μM competing compound). To screen the library, a BioTek MultiFlo FX liquid dispenser was used to dispense 22.5 µL of tracer solution to the top 4 rows and 22.5 µL tracer + competing compound solution to the 4 bottom rows. Plates were briefly mixed on an orbital shaker and incubated for 1.5 h at room temperature. […]

[2] = target: T2, PTGER1 (Homo sapiens, UniProt P34995); test: NanoBRET screen HiBiT-PTGER1 in HEK293
T2 construct: purchased Promega (in-house HiBiT-GPCR construct library, NanoBRET)
T2 sequence (P34995 1-402): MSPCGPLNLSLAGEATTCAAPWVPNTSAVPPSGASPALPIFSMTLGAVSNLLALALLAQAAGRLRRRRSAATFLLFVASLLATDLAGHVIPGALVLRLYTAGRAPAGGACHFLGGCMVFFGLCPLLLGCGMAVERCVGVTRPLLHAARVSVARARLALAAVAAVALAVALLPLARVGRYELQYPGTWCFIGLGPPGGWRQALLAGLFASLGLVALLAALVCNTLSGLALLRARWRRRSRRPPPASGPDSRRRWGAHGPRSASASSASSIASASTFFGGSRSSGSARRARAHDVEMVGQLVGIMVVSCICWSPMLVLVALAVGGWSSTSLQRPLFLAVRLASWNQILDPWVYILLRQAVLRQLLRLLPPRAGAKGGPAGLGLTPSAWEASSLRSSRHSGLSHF
Method: as §1, §2

[3] = target: T3, CXCR1 (Homo sapiens, UniProt P25024); test: NanoBRET screen HiBiT-CXCR1 in HEK293
T3 construct: purchased Promega (in-house HiBiT-GPCR construct library, NanoBRET)
T3 sequence (P25024 1-350): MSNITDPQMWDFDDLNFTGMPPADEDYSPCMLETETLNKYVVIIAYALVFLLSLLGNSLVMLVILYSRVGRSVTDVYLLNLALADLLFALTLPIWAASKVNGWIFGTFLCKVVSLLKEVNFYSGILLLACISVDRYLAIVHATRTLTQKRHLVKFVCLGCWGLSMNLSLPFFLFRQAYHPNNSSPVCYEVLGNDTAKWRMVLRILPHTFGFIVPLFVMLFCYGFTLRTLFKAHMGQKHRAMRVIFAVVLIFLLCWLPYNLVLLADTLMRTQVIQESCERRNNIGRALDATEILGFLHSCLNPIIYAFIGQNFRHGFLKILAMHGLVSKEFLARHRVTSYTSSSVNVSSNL
Method: as §1, §2

[4] = target: T4, PDGFRB (Homo sapiens, UniProt P09619); test: NanoBRET screen HiBiT-PDGFRB in HEK293
T4 construct: purchased Promega (in-house HiBiT-GPCR construct library, NanoBRET)
Method: as §1, §2

[5] = target: T5, NTSR1 (Homo sapiens, UniProt P30989); test: NanoBRET screen HiBiT-NTSR1 in HEK293
T5 construct: purchased Promega (in-house HiBiT-GPCR construct library, NanoBRET)
Method: as §1, §2

[6] = target: T6, PTAFR (Homo sapiens, UniProt P25105); test: NanoBRET screen HiBiT-PTAFR in HEK293
T6 construct: purchased Promega (in-house HiBiT-GPCR construct library, NanoBRET)
Method: as §1, §2

[7] = tracer at 0.1μM, listed as amitriptyline-b-2-NB590
[8] = tracer at 1μM, listed as amitriptyline-b-2-NB590

T6 sequence (P25105 whole entry): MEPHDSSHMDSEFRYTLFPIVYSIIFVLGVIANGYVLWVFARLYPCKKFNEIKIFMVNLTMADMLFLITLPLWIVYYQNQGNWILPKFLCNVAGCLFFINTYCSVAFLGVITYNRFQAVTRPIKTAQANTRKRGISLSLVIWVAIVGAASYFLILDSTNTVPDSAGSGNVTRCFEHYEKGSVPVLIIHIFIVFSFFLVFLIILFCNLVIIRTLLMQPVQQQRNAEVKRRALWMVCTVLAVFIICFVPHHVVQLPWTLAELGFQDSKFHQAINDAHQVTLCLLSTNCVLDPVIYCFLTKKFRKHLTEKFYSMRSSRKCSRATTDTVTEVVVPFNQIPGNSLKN
T4 sequence (P09619 33-1106): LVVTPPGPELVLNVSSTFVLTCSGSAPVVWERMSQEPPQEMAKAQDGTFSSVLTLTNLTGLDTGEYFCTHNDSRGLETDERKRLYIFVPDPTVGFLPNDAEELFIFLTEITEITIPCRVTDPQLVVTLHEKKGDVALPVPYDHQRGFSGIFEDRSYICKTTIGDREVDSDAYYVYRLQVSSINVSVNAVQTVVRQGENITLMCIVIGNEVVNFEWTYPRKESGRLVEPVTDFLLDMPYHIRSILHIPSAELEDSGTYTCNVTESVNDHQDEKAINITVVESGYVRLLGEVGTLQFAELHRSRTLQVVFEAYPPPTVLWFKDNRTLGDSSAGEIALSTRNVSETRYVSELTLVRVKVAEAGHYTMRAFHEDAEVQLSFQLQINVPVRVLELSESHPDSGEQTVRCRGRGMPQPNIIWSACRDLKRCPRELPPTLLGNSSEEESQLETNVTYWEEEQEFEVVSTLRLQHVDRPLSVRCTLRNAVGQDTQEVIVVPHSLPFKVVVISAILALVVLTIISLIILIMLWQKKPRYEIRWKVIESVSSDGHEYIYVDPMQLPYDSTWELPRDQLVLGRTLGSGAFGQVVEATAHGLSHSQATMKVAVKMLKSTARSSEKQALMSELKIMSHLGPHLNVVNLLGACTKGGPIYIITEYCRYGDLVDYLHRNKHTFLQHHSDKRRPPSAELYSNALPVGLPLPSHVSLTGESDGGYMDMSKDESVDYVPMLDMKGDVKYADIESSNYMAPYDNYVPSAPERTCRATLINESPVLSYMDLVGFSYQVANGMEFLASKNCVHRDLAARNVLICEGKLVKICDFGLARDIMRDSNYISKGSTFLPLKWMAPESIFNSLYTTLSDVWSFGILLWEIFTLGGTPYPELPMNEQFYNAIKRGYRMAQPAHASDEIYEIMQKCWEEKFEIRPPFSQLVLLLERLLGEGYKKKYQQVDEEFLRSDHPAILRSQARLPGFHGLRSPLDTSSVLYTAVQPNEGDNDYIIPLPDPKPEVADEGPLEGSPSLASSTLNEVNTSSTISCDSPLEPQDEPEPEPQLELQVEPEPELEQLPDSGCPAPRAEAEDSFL
T5 sequence (P30989 whole entry): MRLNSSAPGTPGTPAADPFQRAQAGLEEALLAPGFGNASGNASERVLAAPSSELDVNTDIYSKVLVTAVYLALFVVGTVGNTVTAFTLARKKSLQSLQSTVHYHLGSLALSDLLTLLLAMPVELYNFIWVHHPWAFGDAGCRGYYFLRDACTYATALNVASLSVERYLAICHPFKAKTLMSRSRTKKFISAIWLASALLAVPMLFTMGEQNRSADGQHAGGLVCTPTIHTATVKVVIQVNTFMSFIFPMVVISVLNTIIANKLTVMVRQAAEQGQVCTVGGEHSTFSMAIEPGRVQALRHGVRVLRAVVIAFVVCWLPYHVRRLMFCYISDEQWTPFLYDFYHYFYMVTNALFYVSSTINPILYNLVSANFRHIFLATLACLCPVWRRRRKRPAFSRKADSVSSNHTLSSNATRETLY

- NanoBRET Fold Response ([1]; F2RL3, 0.1μM): 1.04
- NanoBRET Fold Response ([1]; F2RL3, 1μM): 1.09
- NanoBRET Fold Response ([2]; PTGER1, 0.1μM): 1.17
- NanoBRET Fold Response ([2]; PTGER1, 1μM): 1.14
- NanoBRET Fold Response ([3]; CXCR1, 0.1μM): 1.09
- NanoBRET Fold Response ([3]; CXCR1, 1μM): 1.13
- NanoBRET Fold Response ([4]; PDGFRB, 0.1μM): 1.10
- NanoBRET Fold Response ([4]; PDGFRB, 1μM): 1.16
- NanoBRET Fold Response ([5]; NTSR1, 0.1μM): 1.04
- NanoBRET Fold Response ([5]; NTSR1, 1μM): 1.07
- NanoBRET Fold Response ([6]; PTAFR, 0.1μM): 1.01
- NanoBRET Fold Response ([6]; PTAFR, 1μM): 1.17
SMILES: CCOC(=O)c1cc(C#N)c(N2CCC(C(=O)NS(=O)(=O)Cc3ccccc3/C=C/C(=O)NCCNC(=O)CCc3ccc4n3[B-](F)(F)[N+]3=C(c5ccc[nH]5)C=CC3=C4)CC2)nc1C [AZD1283-1-NB590]

- NanoBRET Fold Response ([1]; F2RL3, tracer 0.1μM): 0.99
- NanoBRET Fold Response ([1]; F2RL3, tracer 1μM): 1.06
- NanoBRET Fold Response ([2]; PTGER1, tracer 0.1μM): 0.97
- NanoBRET Fold Response ([2]; PTGER1, tracer 1μM): 0.95
- NanoBRET Fold Response ([3]; CXCR1, tracer 0.1μM): 1.03
- NanoBRET Fold Response ([3]; CXCR1, tracer 1μM): 0.99
- NanoBRET Fold Response ([4]; PDGFRB, tracer 0.1μM): 0.90
- NanoBRET Fold Response ([4]; PDGFRB, tracer 1μM): 1.01
- NanoBRET Fold Response ([5]; NTSR1, tracer 0.1μM): 1.02
- NanoBRET Fold Response ([5]; NTSR1, tracer 1μM): 1.03
- NanoBRET Fold Response ([6]; PTAFR, tracer 0.1μM): 0.95
- NanoBRET Fold Response ([6]; PTAFR, tracer 1μM): 1.02
SMILES: N#CN=C(NCCCOc1cccc(CN2CCCCC2)c1)NCCNC(=O)CCOCCOCCOCCOCCNC(=O)CCc1ccc2n1[B-](F)(F)[N+]1=C(c3ccc[nH]3)C=CC1=C2 [Aminopotentidine-2-NB590]

SMILES: CN(C)CCC=C1c2ccccc2CCc2ccc(C(=O)NCCNC(=O)CCOCCOCCOCCOCCNC(=O)CCc3ccc4n3[B-](F)(F)[N+]3=C(c5ccc[nH]5)C=CC3=C4)cc21 [Amitriptyline-a-2-NB590]
- NanoBRET Fold Response ([1]; tracer at 0.1μM): 1.00
- NanoBRET Fold Response ([1]; tracer at 1μM): 1.03
- NanoBRET Fold Response ([3]; tracer at 0.1μM): 1.05
- NanoBRET Fold Response ([3]; tracer at 1μM): 0.97
- NanoBRET Fold Response ([4]; tracer at 0.1μM): 1.17
- NanoBRET Fold Response ([4]; tracer at 1μM): 1.06
- NanoBRET Fold Response ([5]; tracer at 0.1μM): 1.05
- NanoBRET Fold Response ([5]; tracer at 1μM): 1.00
- NanoBRET Fold Response ([6]; tracer at 0.1μM): 1.10
- NanoBRET Fold Response ([6]; tracer at 1μM): 0.90

SMILES: CN(C)CCC=C1c2ccccc2CCc2ccc(C(=O)NCCNC(=O)CCOCCOCCOCCOCCNC(=O)CCc3ccc4n3[B-](F)(F)[N+]3=C(c5ccc[nH]5)C=CC3=C4)cc21 [Amitriptyline-b-2-NB590]
- NanoBRET Fold Response [1, 7]: 0.94
- NanoBRET Fold Response [1, 8]: 1.04
- NanoBRET Fold Response ([2]; tracer at 0.1μM): 1.07
- NanoBRET Fold Response ([2]; tracer at 1μM): 1.01
- NanoBRET Fold Response ([3]; tracer at 0.1μM): 0.97
- NanoBRET Fold Response [3, 8]: 1.11
- NanoBRET Fold Response ([4]; tracer at 0.1μM): 0.97
- NanoBRET Fold Response [4, 8]: 0.99
- NanoBRET Fold Response [5, 7]: 0.97
- NanoBRET Fold Response [5, 8]: 1.02
- NanoBRET Fold Response [6, 7]: 0.92
- NanoBRET Fold Response [6, 8]: 1.02
